# Key:
# HCT-116 [1] = assay: Cytotoxicity against human HCT116 cells after 72 hrs by MTT assay; type: functional, cell-based; conditions: HCT-116, 72 h
# PC-3 [2] = assay: Cytotoxicity against human PC3 cells after 72 hrs by MTT assay; type: functional, cell-based; conditions: PC-3, 72 h
# MCF7 = assay: Cytotoxicity against human MCF7 cells after 72 hrs by MTT assay; type: functional, cell-based; conditions: MCF7, 72 h
# A549 [3] = assay: Cytotoxicity against human A549 cells after 72 hrs by MTT assay; type: functional, cell-based; conditions: A549, 72 h
# HEF = assay: Cytotoxicity against HEF after 72 hrs by MTT assay; type: cell-based; conditions: Homo sapiens
# K562 = assay: Cytotoxicity against human K562 cells after 72 hrs by MTT assay; type: functional, cell-based; conditions: K562, 72 h
# NCI-H929 [4] = assay: Cytotoxicity against human NCI-H929 cells after 72 hrs by MTT assay; type: functional, cell-based; conditions: NCI-H929, 72 h
# Jurkat = assay: Cytotoxicity against human Jurkat cells after 72 hrs by MTT assay; type: functional, cell-based
# THP-1 = assay: Cytotoxicity against human THP1 cells after 72 hrs by MTT assay; type: functional, cell-based; conditions: THP-1, 72 h
# RPMI-8226 = assay: Cytotoxicity against human RPMI8226 cells after 72 hrs by MTT assay; type: functional, cell-based; conditions: RPMI-8226, 72 h
# NCI-H929 [5] = assay: Potency index, ratio of PPA IC50 to test compound IC50 for human NCI-H929 cells; type: functional
# A549 [6] = assay: Potency index, ratio of PPA IC50 to test compound IC50 for human A549 cells; type: functional
# [7] = Therapeutic index, ratio of IC50 for HEF to IC50 for human NCI-H929 cells; type: toxicity; conditions: HEF cells versus NCI-H929 cells, read-out: Ratio IC50
# NCI-H929 [8] = assay: Potency index, ratio of etoposide IC50 to test compound IC50 for human NCI-H929 cells; type: functional
# A549 [9] = assay: Potency index, ratio of etoposide IC50 to test compound IC50 for human A549 cells; type: functional
# PC-3 [10] = assay: Potency index, ratio of PPA IC50 to test compound IC50 for human PC3 cells; type: functional
# HCT-116 [11] = assay: Potency index, ratio of PPA IC50 to test compound IC50 for human HCT116 cells; type: functional
# [12] = Therapeutic index, ratio of IC50 for HEF to IC50 for human HCT116 cells; type: toxicity; conditions: HEF cells versus HCT116 cells, read-out: Ratio IC50
structure (smiles),measurement,setting,value
C=C1C2=C(C(=O)N1OC)[C@H](OC(=O)CSc1nc3ccccc3s1)[C@@](C)(O)[C@H](CCCCC)O2,IC50,HCT-116 [1],4.7 µM
same,IC50,PC-3 [2],5 µM
same,IC50,MCF7,6.3 µM
same,IC50,A549 [3],5.9 µM
same,IC50,HEF,11 µM
same,IC50,K562,4.3 µM
same,IC50,NCI-H929 [4],0.59 µM
same,IC50,Jurkat,2.3 µM
same,IC50,THP-1,1.6 µM
same,IC50,RPMI-8226,2 µM
same,Ratio IC50,NCI-H929 [5],11
same,Ratio IC50,A549 [6],7
same,selectivity ratio,[7],18.6
same,Ratio IC50,NCI-H929 [8],1.5
same,Ratio IC50,A549 [9],16
C=C1C2=C(C(=O)N1OC)[C@H](OC(=O)CCCCCl)[C@@](C)(O)[C@H](CCCCC)O2,IC50,HCT-116 [1],11 µM
same,IC50,PC-3 [2],9.2 µM
same,IC50,MCF7,5.4 µM
same,IC50,A549 [3],12 µM
same,IC50,HEF,11 µM
same,IC50,K562,8.5 µM
same,IC50,NCI-H929 [4],2.5 µM
same,IC50,Jurkat,4.2 µM
same,IC50,THP-1,4.6 µM
same,IC50,RPMI-8226,4.3 µM
C=C1C2=C(C(=O)N1OC)[C@H](OC(=O)CSc1nc3ccccc3o1)[C@@](C)(O)[C@H](CCCCC)O2,IC50,HCT-116 [1],4.9 µM
same,IC50,PC-3 [2],5.8 µM
same,IC50,MCF7,3.9 µM
same,IC50,A549 [3],20 µM
same,IC50,HEF,9.3 µM
same,IC50,K562,4.5 µM
same,IC50,NCI-H929 [4],3 µM
same,IC50,Jurkat,2.6 µM
same,IC50,THP-1,2.3 µM
same,IC50,RPMI-8226,5.1 µM
C=C1C2=C(C(=O)N1OC)[C@H](O)[C@@](C)(O)[C@H](CCCCC)O2,IC50,HCT-116 [1],44 µM
same,IC50,PC-3 [2],32 µM
same,IC50,MCF7,20 µM
same,IC50,A549 [3],41 µM
same,IC50,HEF,19 µM
same,IC50,K562,20 µM
same,IC50,NCI-H929 [4],6.5 µM
same,IC50,Jurkat,10 µM
same,IC50,THP-1,19 µM
same,IC50,RPMI-8226,9.3 µM
C=C1C2=C(C(=O)N1OC)[C@H](OC(=O)CSc1nc3ccccc3[nH]1)[C@@](C)(O)[C@H](CCCCC)O2,IC50,HCT-116 [1],8.2 µM
same,IC50,PC-3 [2],6.4 µM
same,IC50,MCF7,16 µM
same,IC50,A549 [3],19 µM
same,IC50,HEF,11 µM
same,IC50,K562,9.3 µM
same,IC50,NCI-H929 [4],2 µM
same,IC50,Jurkat,8.9 µM
same,IC50,THP-1,5.3 µM
same,IC50,RPMI-8226,4.3 µM
C=C1C2=C(C(=O)N1OC)[C@@H](F)[C@@](C)(O)[C@H](CCCCC)O2,IC50,HCT-116 [1],31 µM
same,IC50,PC-3 [2],12 µM
same,IC50,MCF7,37 µM
same,IC50,A549 [3],42 µM
same,IC50,HEF,37 µM
same,Ratio IC50,PC-3 [10],3
same,IC50,K562,18 µM
same,IC50,NCI-H929 [4],3.9 µM
same,IC50,Jurkat,15 µM
same,IC50,THP-1,19 µM
same,IC50,RPMI-8226,16 µM
C=C1C2=C(C(=O)N1OC)[C@H](OC(=O)CCl)[C@@](C)(O)[C@H](CCCCC)O2,IC50,HCT-116 [1],2.4 µM
same,IC50,PC-3 [2],2.4 µM
same,IC50,MCF7,17 µM
same,IC50,A549 [3],20 µM
same,IC50,HEF,9.1 µM
same,Ratio IC50,HCT-116 [11],20
same,selectivity ratio,[12],3.8
same,IC50,K562,7 µM
same,IC50,NCI-H929 [4],3.3 µM
same,IC50,Jurkat,9.6 µM
same,IC50,THP-1,11 µM
same,IC50,RPMI-8226,9.7 µM
COc1cc([C@@H]2c3cc4c(cc3[C@@H](O[C@@H]3O[C@@H]5CO[C@@H](C)O[C@H]5[C@H](O)[C@H]3O)[C@H]3COC(=O)[C@H]23)OCO4)cc(OC)c1O [ETOPOSIDE],IC50,HCT-116 [1],22 µM
same,IC50,PC-3 [2],2.7 µM
same,IC50,MCF7,9.6 µM
same,IC50,A549 [3],100 µM
same,IC50,HEF,> 100 µM
same,IC50,K562,9.4 µM
same,IC50,NCI-H929 [4],0.9 µM
same,IC50,Jurkat,1.4 µM
same,IC50,THP-1,1 µM
same,IC50,RPMI-8226,4.8 µM
